Reference: patent publication US11524962B2, “Substituted pyrrolo[2,3-d]pyrimidines as inhibitors of protein arginine methyl transferase 5 (PRMT5)” (PRELUDE THERAPEUTICS, INCORPORATED, priority 2017, dated 2022)

Legend:
PRMT5/MEP50 complex [1] = target: T1, PRMT5/MEP50 complex (Homo sapiens (Human), UniProt O14744); assay: HotSpot Assay; format: biochemical
Experimental: HotSpot Assay. Compounds were solubilized and 3-fold diluted in 100% DMSO. […] Standard reactions were performed in a total volume of 50 μl in assay buffer, with histone H2A (5 μM final) as substrate. To this was added the PRMT5/MEP50 complex diluted to provide a final assay concentration of 5 nM and the compounds were allowed to preincubate for 15 to 20 minutes at room temperature. The reaction was initiated by adding S-[3H-methyl]-adenosyl-L-methionine (PerkinElmer) to final concentration of 1 μM. Following a 60 minutes incubation at 30° C., the reaction was stopped by adding 100 μL of 20% TCA. Each reaction was spotted onto filter plate (MultiScreen FB Filter Plate, Millipore), and washed 5 times with PBS buffer, Scintillation fluid was added to the filter plate and read in a scintillation counter. IC50 values were determined by fitting the data to the standard 4 parameters with Hill Slope using GraphPad Prism software. This procedure generated the HotSpot data in Table 7.

PRMT5/MEP50 complex [2] = target: T1, PRMT5/MEP50 complex; assay: Flash plate assay; format: biochemical; details: read-out: Flash Plate IC50
Experimental: Flash plate assay. Compounds were solubilized, and 3-fold diluted in 100% DMSO. […] Standard reactions were performed in a total volume of 30 μl in assay buffer, with 300 nM histone H4 based AcH4-23 (Anaspec: AS-65002) as substrate. To this was added the PRMT5/MEP50 complex diluted to provide a final assay concentration of 2.5 nM and the compounds were allowed to preincubate for 20 minutes at 37° C. The reaction was initiated by adding S-[3H-methyl]-adenosyl-L-methionine (PerkinElmer: NET155001MC) to final concentration of 1 μM. Following a 30 minutes incubation at 37° C., the reaction was stopped by adding 25 μL of 8M Guanidine HCl. Prepare streptavidin YSI SPA beads (Perkinelmer: RPNQ0012) at 0.3 mg/mL in assay buffer. To each reaction, add 150 μL of SPA beads suspension, and incubated while shaking at room temperature for 30 minutes. The plate was centrifuged at 100×g for 30 second before reading in a scintillation counter. IC50 values were determined by fitting the data to the standard 4 parameters with Hill Slope using GraphPad Prism software. This procedure produced the Flash Plate data in Table 7.

T1 sequence (O14744 whole entry): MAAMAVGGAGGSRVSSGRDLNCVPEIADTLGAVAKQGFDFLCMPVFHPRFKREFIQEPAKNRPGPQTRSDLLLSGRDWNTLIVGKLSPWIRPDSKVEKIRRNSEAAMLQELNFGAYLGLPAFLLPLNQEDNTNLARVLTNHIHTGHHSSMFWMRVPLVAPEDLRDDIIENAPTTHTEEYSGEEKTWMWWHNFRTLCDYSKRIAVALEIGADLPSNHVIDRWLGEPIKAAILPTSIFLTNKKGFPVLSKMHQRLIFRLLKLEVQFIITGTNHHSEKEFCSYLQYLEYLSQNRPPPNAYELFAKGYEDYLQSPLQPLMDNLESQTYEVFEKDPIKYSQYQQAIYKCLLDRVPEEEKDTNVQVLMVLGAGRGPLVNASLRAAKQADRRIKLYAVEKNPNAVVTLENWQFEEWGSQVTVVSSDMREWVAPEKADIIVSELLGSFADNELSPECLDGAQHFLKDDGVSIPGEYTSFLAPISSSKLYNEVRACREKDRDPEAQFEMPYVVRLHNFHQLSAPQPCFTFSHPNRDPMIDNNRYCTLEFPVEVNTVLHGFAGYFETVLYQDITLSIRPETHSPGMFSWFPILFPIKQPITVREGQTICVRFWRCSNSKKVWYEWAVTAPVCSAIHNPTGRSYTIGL
T1 sequence (Q9BQA1 whole entry partner): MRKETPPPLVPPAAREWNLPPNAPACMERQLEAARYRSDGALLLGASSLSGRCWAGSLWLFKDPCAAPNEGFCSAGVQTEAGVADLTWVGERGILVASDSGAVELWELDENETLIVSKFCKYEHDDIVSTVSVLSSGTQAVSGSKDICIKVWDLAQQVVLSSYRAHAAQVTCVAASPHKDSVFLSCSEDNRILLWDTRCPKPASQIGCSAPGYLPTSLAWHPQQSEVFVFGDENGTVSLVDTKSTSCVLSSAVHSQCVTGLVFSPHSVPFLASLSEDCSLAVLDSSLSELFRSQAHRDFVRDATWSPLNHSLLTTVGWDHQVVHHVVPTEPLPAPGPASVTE

Row | IC50 (PRMT5/MEP50 complex [1]) [nM] | IC50 (PRMT5/MEP50 complex [2]) [nM] | Structure (SMILES)
1 | – | 697 | CN(C)C(=O)Nc1ncnc2c1ccn2[C@@H]1O[C@H]([C@H](O)c2ccc3c(c2)CC3)[C@@H](O)[C@H]1O [Example 23, 3-(7-((2R,3R,4S,5R)-5-((R)-bicyclo[4.2.0]octa-1(6),2,4-trien-3-yl(hydroxy)methyl)-3,4-dihydroxytetrahydrofuran-2-yl)-7H-pyrrolo[2,3-d]pyrimidin-4-yl)-1,1-dimethylurea]
2 | 46 | 287 | COc1ncnc2c1ccn2[C@@H]1O[C@H]([C@H](O)c2ccc3c(c2)CC3)[C@@H](O)[C@H]1O [Example 35, (2R,3S,4R,5R)-2-[(R)-4-bicyclo[4.2.0]octa-1,3,5-trienyl(hydroxy)methyl]-5-(4-methoxypyrrolo[2,3-d]pyrimidin-7-yl)tetrahydrofuran-3,4-diol]
3 | – | 1030 | C=C(C)c1ncnc2c1ccn2[C@@H]1O[C@H]([C@H](O)c2ccc3c(c2)CC3)[C@@H](O)[C@H]1O [Example 40, (2R,3S,4R,5R)-2-((R)-bicyclo[4.2.0]octa-1(6),2,4-trien-3-yl(hydroxy)methyl)-5-(4-(prop-1-en-2-yl)-7H-pyrrolo[2,3-d]pyrimidin-7-yl)tetrahydrofuran-3,4-diol]
4 | – | 230 | CC(C)c1ncnc2c1ccn2[C@@H]1O[C@H]([C@H](O)c2ccc3c(c2)CC3)[C@@H](O)[C@H]1O [Example 41, (2R,3S,4R,5R)-2-((R)-bicyclo[4.2.0]octa-1(6),2,4-trien-3-yl(hydroxy)methyl)-5-(4-isopropyl-7H-pyrrolo[2,3-d]pyrimidin-7-yl)tetrahydrofuran-3,4-diol]
5 | – | 392 | CCCCc1ncnc2c1ccn2[C@@H]1O[C@H]([C@H](O)c2ccc3c(c2)CC3)[C@@H](O)[C@H]1O [Example 42, (2R,3S,4R,5R)-2-((R)-bicyclo[4.2.0]octa-1,3,5-trien-3-yl(hydroxy)methyl)-5-(4-butyl-7H-pyrrolo[2,3-d]pyrimidin-7-yl)tetrahydrofuran-3,4-diol]
6 | – | 181 | OCc1ncnc2c1ccn2[C@@H]1O[C@H]([C@H](O)c2ccc3c(c2)CC3)[C@@H](O)[C@H]1O [Example 43, (2R,3S,4R,5R)-2-((R)-bicyclo[4.2.0]octa-1,3,5-trien-3-yl(hydroxy)methyl)-5-(4-(hydroxymethyl)-7H-pyrrolo[2,3-d]pyrimidin-7-yl)tetrahydrofuran-3,4-diol]
7 | – | 2060 | C=Cc1ncnc2c1ccn2[C@@H]1O[C@H]([C@H](O)c2ccc3c(c2)CC3)[C@@H](O)[C@H]1O [Example 46, (2R,3S,4R,5R)-2-((R)-bicyclo[4.2.0]octa-1(6),2,4-trien-3-yl(hydroxy)methyl)-5-(4-vinyl-7H-pyrrolo[2,3-d]pyrimidin-7-yl)tetrahydrofuran-3,4-diol]
8 | – | 274 | Cc1ncnc2c1ccn2[C@@H]1O[C@H]([C@@H](O)c2ccc3c(c2)CC3)[C@@H](O)[C@H]1O [Example 47, (2R,3S,4R,5R)-2-((S)-bicyclo[4.2.0]octa-1,3,5-trien-3-yl(hydroxy)methyl)-5-(4-methyl-7H-pyrrolo[2,3-d]pyrimidin-7-yl)tetrahydrofuran-3,4-diol]
9 | – | 2520 | CCOCc1ncnc2c1ccn2[C@@H]1O[C@H]([C@H](O)c2ccc3c(c2)CC3)[C@@H](O)[C@H]1O [Example 50, (2R,3S,4R,5R)-2-((R)-bicyclo[4.2.0]octa-1(6),2,4-trien-3-yl(hydroxy)methyl)-5-(4-(ethoxymethyl)-7H-pyrrolo[2,3-d]pyrimidin-7-yl)tetrahydrofuran-3,4-diol]
10 | – | 51 | O[C@@H]1[C@H](O)[C@@H]([C@H](O)c2ccc3c(c2)CC3)O[C@H]1n1ccc2c(CCl)ncnc21 [Example 51, (2R,3S,4R,5R)-2-((R)-bicyclo[4.2.0]octa-1(6),2,4-trien-3-yl(hydroxy)methyl)-5-(4-(chloromethyl)-7H-pyrrolo[2,3-d]pyrimidin-7-yl)tetrahydrofuran-3,4-diol]

Further lines, the compound ahead of its results:

Row | Structure (SMILES) | IC50 (PRMT5/MEP50 complex [1]) [nM] | IC50 (PRMT5/MEP50 complex [2]) [nM]
11 | CO/N=c1\[nH]cnc2c1ccn2[C@@H]1O[C@H]([C@H](O)c2ccc3c(c2)CC3)[C@@H](O)[C@H]1O [Example 20, 7-((2R,3R,4S,5R)-5-((R)-bicyclo[4.2.0]octa-1(6),2,4-trien-3-yl(hydroxy)methyl)-3,4-dihydroxytetrahydrofuran-2-yl)-3,7-dihydro-4H-pyrrolo[2,3-d]pyrimidin-4-one O-methyl oxime] | 32 | 121
12 | CCO/N=c1\[nH]cnc2c1ccn2[C@@H]1O[C@H]([C@H](O)c2ccc3c(c2)CC3)[C@@H](O)[C@H]1O [Example 21, 7-((2R,3R,4S,5R)-5-((R)-bicyclo[4.2.0]octa-1(6),2,4-trien-3-yl(hydroxy)methyl)-3,4-dihydroxytetrahydrofuran-2-yl)-3,7-dihydro-4H-pyrrolo[2,3-d]pyrimidin-4-one O-ethyl oxime] | 153 | 148
13 | CCO/N=c1\[nH]cnc2c1ccn2[C@@H]1O[C@H]([C@](C)(O)c2ccc3c(c2)CC3)[C@@H](O)[C@H]1O [Example 22, 7-((2R,3R,4S,5S)-5-((R)-1-(bicyclo[4.2.0]octa-1(6),2,4-trien-3-yl)-1-hydroxyethyl)-3,4-dihydroxytetrahydrofuran-2-yl)-3,7-dihydro-4H-pyrrolo[2,3-d]pyrimidin-4-one O-ethyl oxime] | 57 | 189
14 | Nc1ncnc2c1c(I)cn2[C@@H]1O[C@H]([C@H](O)c2ccc3c(c2)CC3)[C@@H](O)[C@H]1O [Example 37, (2R,3R,4S,5R)-2-(4-amino-5-iodo-7H-pyrrolo[2,3-d]pyrimidin-7-yl)-5-((R)-bicyclo[4.2.0]octa-1(6),2,4-trien-3-yl(hydroxy)methyl)tetrahydrofuran-3,4-diol] | 12 | 31
15 | Nc1ncnc2c1c(C(F)(F)F)cn2[C@@H]1O[C@H]([C@H](O)c2ccc3c(c2)CC3)[C@@H](O)[C@H]1O [Example 38, (2R,3R,4S,5R)-2-(4-amino-5-(trifluoromethyl)-7H-pyrrolo[2,3-d]pyrimidin-7-yl)-5-((R)-bicyclo[4.2.0]octa-1(6),2,4-trien-3-yl(hydroxy)methyl)tetrahydrofuran-3,4-diol] | 368 | 221
16 | C[C@](O)(c1ccc2c(c1)CC2)[C@H]1O[C@@H](n2ccc3c(N)ncnc32)[C@H](O)[C@@H]1O [Example 39, (2R,3R,4S,5S)-2-(4-amino-7H-pyrrolo [2,3-d]pyrimidin-7-yl)-5-((S)-1-(bicyclo[4.2.0]octa-1(6),2,4-trien-3-yl)-1-hydroxyethyl)tetrahydrofuran-3,4-diol] | – | 1240
17 | O[C@@H]1[C@H](O)[C@@H]([C@H](O)c2ccc3c(c2)CC3)O[C@H]1n1ccc2c(CCOCc3ccccc3)ncnc21 [Example 55, (2R,3R,4S,5R)-2-(4-(2-(benzyloxy)ethyl)-7H-pyrrolo[2,3-d]pyrimidin-7-yl)-5-((R)-bicyclo[4.2.0]octa-1(6),2,4-trien-3-yl(hydroxy)methyl)tetrahydrofuran-3,4-diol] | – | 200
